Blank lines part the entries; values can stand above or below the compound they belong to. *1 amine or outer side, *2 acyl side, *3 side chain or, on linkers, in order; H or OH if unused. Where a SMILES comes first, the peptide text is derived from it. [ ]: non-standard residue; d: D form. The star is where a group is joined. NHBn(4-(4-Me-thiazol-5-yl)) = Cc1ncsc1-c1ccc(CN*)cc1; F2Pmp = N[C@@H](Cc1ccc(C(F)(F)P(=O)(O)O)cc1)C(=O)O; Phenylacetyl(4-OH,3-OMe) = COc1cc(CC(=O)*)ccc1O; Benzoyl(3-Br,4-Me) = Cc1ccc(C(=O)*)cc1Br; Hyp = O=C(O)[C@@H]1C[C@@H](O)CN1; X2 = O=C(CCN1CCN([*:1])CC1)[*:2]; Tle = CC(C)(C)[C@H](N)C(=O)O; PEG1 = NCCOCCC(=O)O
Key:
PTP1B [1] = target: T1, PTP1B (Homo sapiens, UniProt P18031); assay: FP-based library screening (fluorescence polarization displacement); format: binding
T1 sequence (P18031 1-435): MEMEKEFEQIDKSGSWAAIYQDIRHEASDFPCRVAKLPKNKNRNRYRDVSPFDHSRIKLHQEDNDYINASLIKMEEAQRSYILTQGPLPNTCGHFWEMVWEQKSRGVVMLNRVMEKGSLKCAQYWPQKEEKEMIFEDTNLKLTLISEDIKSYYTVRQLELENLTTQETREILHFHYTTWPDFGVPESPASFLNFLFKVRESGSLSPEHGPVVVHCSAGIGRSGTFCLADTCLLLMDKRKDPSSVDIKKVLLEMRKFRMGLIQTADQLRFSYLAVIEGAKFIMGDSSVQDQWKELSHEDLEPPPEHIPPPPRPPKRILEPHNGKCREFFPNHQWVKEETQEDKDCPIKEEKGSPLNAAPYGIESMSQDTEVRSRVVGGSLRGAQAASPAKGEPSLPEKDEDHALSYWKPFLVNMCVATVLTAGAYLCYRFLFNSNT
Procedure: (§1) The library screening assay was carried out on a Tecan Genesis workstation with a 96-channel tip block with fixed tips. Before the screening, the library compounds were diluted from the DMSO stock solution into 3,3-dimethylglutarate buffer (50 mM 3,3-dimethylglutarate buffer, pH 7.0, containing 1 mM EDTA with an ionic strength of 0.15 M adjusted by addition of NaCl), resulting in a set of six daughter plates with an ~75 nM concentration of each compound in each well. In the first screen, PTP1B or TCPTP (2 μM in 50 mM 3,3-dimethylglutarate buffer, 50 μL, pH 7.0, containing 1 mM EDTA with an ionic strength of 0.15 M adjusted by addition of NaCl) was dispensed into each well of a 384-well plate, and then 2 μL of the fluorescein-tagged library compounds were transferred from four 96-well intermediate plates to the 384-well plate (final compound concentration ~3 nM). The fluorescence polarization values (A1) were recorded on an Envision 2021 Multilabel Microplate Reader (Perkin-Elmer). In the second screen, 50 μL of a mixture of 2 μM PTP1B or TCPTP and 500 μM Fmoc-F2Pmp-OH (as a competitive ligand) in 3,3-dimethylglutarate buffer (50 mM 3,3-dimethylglutarate buffer, pH 7.0, containing 1 mM EDTA with an ionic strength of 0.15 M adjusted by addition of NaCl) were dispensed into each well of another 384-well plate, followed by the addition of 2 μL of the fluorescein tagged library compounds (75 nM in 3,3-dimethylglutarate buffer, pH 7.0, containing 1 mM EDTA with an ionic strength of 0.15 M adjusted by addition of NaCl). The fluorescence polarization values (A2) were again measured. A displacement percentage was calculated for each library compound as (A1−A2)/(A1−A0)×100%, where A1 and A2 are the fluorescence anisotropy values of each sample as described, and A0 is the fluorescence anisotropy of free library compounds in 3,3-dimethylglutarate buffer. To simplify the calculation, A0 was set to 30. The binding affinity ranking of each compound was determined on the displacement percentage: the […] the displacement percentage, the higher the binding affinity.
(§2) The library was screened using the same protocol as the library 1, except that 0.5 μM PTP1BB/TC-PTP and 1.5 mM competitive ligand Fmoc-F2Pmp-OH were used.
(§3) The library was screened using the same protocol as the library 1, except that 0.5 μM PTP1B/TC-PTP and 5 μM ((4-((S)-2-((S)-2-acetamido-3-phenylpropanamido)-3-(((S)-1-amino-6-(3-bromo-4-methylbenzamido)-1-oxohexan-2-yl)amino)-3-oxopropyl)phenyl)difluoromethyl)phosphonic acid (as a competitor) were used.

TC-PTP [2] = target: T2, TC-PTP (Homo sapiens, UniProt P17706); assay: as above; format: binding
T2 sequence (P17706 1-415): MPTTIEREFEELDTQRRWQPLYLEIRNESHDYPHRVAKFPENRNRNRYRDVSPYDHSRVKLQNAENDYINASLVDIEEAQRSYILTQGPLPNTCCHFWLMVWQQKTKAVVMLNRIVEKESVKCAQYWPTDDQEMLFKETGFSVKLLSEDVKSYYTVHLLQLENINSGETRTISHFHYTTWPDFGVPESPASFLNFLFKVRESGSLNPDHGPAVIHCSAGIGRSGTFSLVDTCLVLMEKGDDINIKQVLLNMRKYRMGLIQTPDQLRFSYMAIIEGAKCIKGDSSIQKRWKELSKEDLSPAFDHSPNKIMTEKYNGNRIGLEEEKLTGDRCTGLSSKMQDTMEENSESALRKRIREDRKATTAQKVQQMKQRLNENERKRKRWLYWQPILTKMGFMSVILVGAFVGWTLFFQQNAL
Procedure: as §1, §2, §3

PTP1B [3] = target: T1, PTP1B; assay: PTP activity assay with pNPP substrate (IC50, Ki, mode of inhibition); format: biochemical; conditions: pNPP 2 mM, pH 7.0, 25° C.; read-out: IC50, nM PTP1B
Procedure: (§4) PTP activity was assayed using p-nitrophenyl phosphate (pNPP) as a substrate in DMG buffer (50 mM DMG. pH 7.0, 1 mM EDTA, 150 mM NaCl, 2 mM DTT, 0.1 mg/mL BSA) at 25° C. The assays were performed in 96-well plates. Normally, to determine the IC50 values, the reaction was initiated by the addition of enzyme (for PTP1B and TCPTP, the final concentration was 0.4 nM, for other PTPs, the final concentration was 10 nM) to a reaction mixture (0.2 mL) containing 2 mM (Km for the substrate) pNPP with various concentrations of inhibitors (see FIG. 1). The reaction rate was measured using a SpectraMax Plus 384 Microplate Spectrophotometer (Molecular Devices). Data were fitted using SigmaPlot Enzyme Kinetics Module (Systat Software, Inc.). To determine the mode of inhibition, the reactions were initiated by the addition of enzyme (final concentration for TC-PTP and PTP1B was 0.4 nM) to the reaction mixtures (0.2 mL) containing various concentrations of pNPP with different concentrations of the inhibitor. Data were fitted using SigmaPlot Enzyme Kinetics Module (Systat Software. Inc.).

TC-PTP [4] = target: T2, TC-PTP; assay: as above; format: biochemical; conditions: pNPP 2 mM, pH 7.0, 25° C.; read-out: IC50, nM TC-PTP
Procedure: as §4

PTP1B [5] = target: T1, PTP1B; assay: Degradation assay in HEK293 cells (immunoblotting); format: cell-based; parameters: endogenous in cells; host or cells: HEK293; conditions: 0.2 μM degrader, 16 hours
Procedure: (§5) HEK293. MIAPaCa-2, HepG2, U2OS, H116, MEF, B16F10, and MC38 cells, were grown in DMEM, while Jurkat and H358 cells were grown in RPMI 1640 supplemented with 10% fetal bovine serum, penicillin (50 units/mL), and streptomycin (50 μg/mL) in a 37° C. incubator containing 5% CO2. 20 ng/ml human (Biolegend #713906) or mouse (Biolegend #714006) Interferon-γ were used for JAK/STAT pathway stimulation.
(§6) Tissues or cultured cells were lysed with ice-cold lysis buffer (50 mM Tris (pH 8.0, 150 mM NaCl, 10% Glycerol, 1% Triton-X-100) supplied with phosphatase inhibitor (Bimake) and protease inhibitor mixture (Roche Applied Science). Equal amounts of protein were resolved by SDS-PAGE, transferred to nitrocellulose membrane, and subjected to immunoblotting. Antibodies used in this study include anti-following proteins: pSTAT1^Tyr701 (Cell Signaling Technology #9167, 1:3000), GAPDH (Cell Signaling Technology #97166, 1:5000), pJAK1^Tyr1034/1035 (Cell Signaling Technology #74129, 1:1000), pJAK2^Tyr1007/1008 (Cell Signaling Technology #3776, 1:1000), TC-PTP (Abcam #ab180764, 1:3000). PTP1B (Abcam #ab244207, 1:1500).
(§7) Degradation assay was conducted in HEK293 cells with 1 μM degrader and 24 hours incubation.
(§8) The degradation assay was conducted in HEK293 cells with 0.2 μM degrader and 16 hours incubation.

TC-PTP [6] = target: T2, TC-PTP; assay: Degradation assay in HEK293 cells (immunoblotting); format: cell-based; parameters: endogenous in cells; host or cells: HEK293; conditions: 0.2 μM degrader, 16 hours, read-out: % Protein Degradation TC-PTP
Procedure: as §5, §6, §7, §8

[7] = library 1, 2 μM PTP1B, 500 μM Fmoc-F2Pmp-OH competitive ligand, smaller = higher affinity
[8] = library 1, 2 μM TCPTP, 500 μM Fmoc-F2Pmp-OH competitive ligand, smaller = higher affinity
[9] = library 3, 0.5 μM enzyme, 5 μM Example 6 compound as competitor
[10] = library 2, 0.5 μM enzyme, 1.5 mM Fmoc-F2Pmp-OH

Displacement %, PTP1B (PTP1B [1]; [7]): 41% | Displacement %, TC-PTP (TC-PTP [2]; [8]): 40%
Compound: COc1cc(C(=O)O)ccc1[N+](=O)[O-] [3-methoxy-4-nitrobenzoic acid]

Displacement %, PTP1B (PTP1B [1]; [9]): 81% | Displacement %, TC-PTP (TC-PTP [2]; [9]): 79%
Compound: CN(C)c1ccc(CC(=O)O)cc1 [2-(4-(dimethylamino)phenyl) acetic acid]

Compound: COc1cc(CC(=O)N[C@@H](Cc2ccccc2)C(=O)N[C@@H](Cc2ccc(C(F)(F)P(=O)(O)O)cc2)C(=O)N[C@@H](CCCCNC(=O)c2ccc(C)c(Br)c2)C(=O)NCCOCCC(=O)N[C@H](C(=O)N2C[C@H](O)C[C@H]2C(=O)NCc2ccc(-c3scnc3C)cc2)C(C)(C)C)ccc1O [Compound 28, ((4-((2S,5S,15S)-5-(4-(3-bromo-4-methylbenzamido)butyl)-15-((2S,4R)-4-hydroxy-2-((4-(4-methylthiazol-5-yl)benzyl)carbamoyl)pyrrolidine-1-carbonyl)-2-((S)-2-(2-(4-hydroxy-3-methoxyphenyl)acetamido)-3-phenylpropanamido)-16,16-dimethyl-3,6,13-trioxo-10-oxa-4,7,14-triazaheptadecyl)phenyl)difluoromethyl)phosphonic Acid] ({Phenylacetyl(4-OH,3-OMe)}-F[F2Pmp]K(Benzoyl(3-Br,4-Me))[PEG1][Tle][Hyp]-{NHBn(4-(4-Me-thiazol-5-yl))})
IC50 (PTP1B [3]): 15.4 ± 3.3 nM | IC50 (TC-PTP [4]): 11.2 ± 1.3 nM | % Protein Degradation PTP1B (PTP1B [5]): 45% | percent TC-PTP degradation at 0.2 µM (TC-PTP [6]): 47%

Compound: COc1cc(CC(=O)N[C@@H](Cc2ccccc2)C(=O)N[C@@H](Cc2ccc(C(F)(F)P(=O)(O)O)cc2)C(=O)N[C@@H](CCCCNC(=O)c2ccc(C)c(Br)c2)C(=O)N2CCN(CCC(=O)N[C@H](C(=O)N3C[C@H](O)C[C@H]3C(=O)NCc3ccc(-c4scnc4C)cc3)C(C)(C)C)CC2)ccc1O [Compound 56, ((4-((S)-3-(((S)-6-(3-bromo-4-methylbenzamido)-1-(4-(3-(((S)-1-((2S,4R)-4-hydroxy-2-((4-(4-methylthiazol-5-yl)benzyl)carbamoyl)pyrrolidin-1-yl)-3,3-dimethyl-1-oxobutan-2-yl)amino)-3-oxopropyl)piperazin-1-yl)-1-oxohexan-2-yl)amino)-2-((S)-2-(2-(4-hydroxy-3-methoxyphenyl)acetamido)-3-phenylpropanamido)-3-oxopropyl)phenyl)difluoromethyl)phosphonic Acid] ({Phenylacetyl(4-OH,3-OMe)}-F[F2Pmp]K(Benzoyl(3-Br,4-Me))[X2][Tle][Hyp]-{NHBn(4-(4-Me-thiazol-5-yl))})
IC50 (PTP1B [3]): 13.7 ± 1.9 nM | IC50 (TC-PTP [4]): 12 ± 0.8 nM | % Protein Degradation PTP1B (PTP1B [5]): 30% | percent TC-PTP degradation at 0.2 µM (TC-PTP [6]): 14%

Displacement %, PTP1B (PTP1B [1]; [10]): 47% | Displacement %, TC-PTP (TC-PTP [2]; [10]): 53%
Compound: Cc1ccc(CCC(=O)O)cc1 [3-(p-tolyl)propanoic acid]

Compound: COc1cc(CC(=O)O)ccc1O [2-(4-hydroxy-3-methoxyphenyl)acetic acid]
Displacement %, PTP1B (PTP1B [1]; [9]): 51% | Displacement %, TC-PTP (TC-PTP [2]; [9]): 54%

Displacement %, PTP1B (PTP1B [1]; [10]): 37% | Displacement %, TC-PTP (TC-PTP [2]; [10]): 41%
Compound: CC(=O)N[C@@H](Cc1ccccc1)C(=O)O [acetyl-L-phenylalanine]

Compound: 3-bromo-4- methylbenzoic acid
Displacement %, PTP1B (PTP1B [1]; [7]): 34% | Displacement %, TC-PTP (TC-PTP [2]; [8]): 39%
